A word on the EC50: it is the concentration needed to bring the measured effect to its halfway point. Low values mean a more potent agent, high ones a less potent agent.

Common to all, as to assay: cAMP induction, firefly luciferase reporter assay in HEK293 cells co-transfected with receptor
Holding throughout (type): cell-based
On the technique in general: In a reporter assay the amount or activity of a reporter protein is the signal.

One experiment has as its target T1, GIP receptor (Homo sapiens, UniProt P48546).
T1 construct: expressed in transfected cells; host or cells: HEK293
T1 sequence (P48546 22-466): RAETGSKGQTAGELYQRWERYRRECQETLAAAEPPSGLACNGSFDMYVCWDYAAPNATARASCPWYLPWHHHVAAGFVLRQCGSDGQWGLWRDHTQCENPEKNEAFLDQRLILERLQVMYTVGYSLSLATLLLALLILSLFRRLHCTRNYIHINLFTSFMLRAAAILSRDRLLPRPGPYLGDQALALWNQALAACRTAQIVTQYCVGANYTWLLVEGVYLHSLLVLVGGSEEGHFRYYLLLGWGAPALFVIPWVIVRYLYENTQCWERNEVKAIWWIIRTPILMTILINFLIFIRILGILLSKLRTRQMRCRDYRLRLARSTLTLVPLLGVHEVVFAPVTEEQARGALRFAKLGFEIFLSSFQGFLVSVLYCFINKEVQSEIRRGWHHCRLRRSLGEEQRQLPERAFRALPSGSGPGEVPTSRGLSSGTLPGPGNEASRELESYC
As to the method:
(§1) The ability of glucagon analogs to induce cAMP was measured in a firefly luciferase-based reporter assay. […] At the end of the incubation 100 microliters of LucLite luminescence substrate reagent (Perkin-Elmer, Wellesley, Mass.) were added to each well. […] Effective 50% concentrations were calculated by using Origin software (OriginLab, Northampton, Mass.

The target in another experiment is T2, glucagon receptor (Homo sapiens, UniProt P47871).
T2 construct: expressed in transfected cells; host or cells: HEK293
As for the experimental part:
as §1

The target in a further experiment is T3, GLP-1 receptor (Homo sapiens, UniProt P43220).
T3 construct: expressed in transfected cells; host or cells: HEK293
As to the method:
as §1

[1] abbreviates: Table 2, analogs of SEQ ID NO: 10.
Where [2] appears, read: Table 3, analogs of SEQ ID NO: 12.

Numbered stars: 1 amine (or outer) side, 2 acyl side, 3 side chain; on linkers, the order of the positions; unused ones are H or OH. Square brackets hold non-standard residues; d marks the D form. Side chains are listed from the residue outwards. Peptide text beside a SMILES is read from it. * marks the point of attachment. γGlu = O=C(O)[C@H](CCC(=O)[*:2])N[*:1]; Palmitoyl = CCCCCCCCCCCCCCCC(=O)*

T2 sequence (P47871 26-477): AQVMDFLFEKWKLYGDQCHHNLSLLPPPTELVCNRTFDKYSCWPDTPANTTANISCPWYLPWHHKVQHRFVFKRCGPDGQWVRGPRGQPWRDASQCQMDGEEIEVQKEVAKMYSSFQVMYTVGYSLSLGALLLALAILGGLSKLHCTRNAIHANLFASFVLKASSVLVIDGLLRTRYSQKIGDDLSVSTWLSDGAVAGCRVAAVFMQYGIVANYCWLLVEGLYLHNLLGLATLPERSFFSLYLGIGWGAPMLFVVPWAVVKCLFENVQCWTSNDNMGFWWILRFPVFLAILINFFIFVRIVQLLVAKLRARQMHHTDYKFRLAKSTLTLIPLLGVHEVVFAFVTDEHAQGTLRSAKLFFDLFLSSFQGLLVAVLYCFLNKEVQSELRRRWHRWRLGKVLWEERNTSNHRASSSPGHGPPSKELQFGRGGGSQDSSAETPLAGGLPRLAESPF
T3 sequence (P43220 24-463): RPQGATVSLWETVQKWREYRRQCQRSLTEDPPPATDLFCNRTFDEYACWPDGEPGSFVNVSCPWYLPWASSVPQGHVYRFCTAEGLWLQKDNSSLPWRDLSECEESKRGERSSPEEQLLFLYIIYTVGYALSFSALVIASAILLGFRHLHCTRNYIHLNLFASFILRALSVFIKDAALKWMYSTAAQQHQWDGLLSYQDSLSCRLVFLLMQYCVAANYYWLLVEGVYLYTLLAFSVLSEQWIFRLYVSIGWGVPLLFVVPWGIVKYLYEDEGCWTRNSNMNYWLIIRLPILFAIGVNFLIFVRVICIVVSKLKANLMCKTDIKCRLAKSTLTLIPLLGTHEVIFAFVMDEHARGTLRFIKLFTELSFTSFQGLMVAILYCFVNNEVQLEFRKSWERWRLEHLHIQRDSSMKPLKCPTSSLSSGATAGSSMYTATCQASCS

As to `CCCCCCCCCCCCCCCC(=O)N[C@@H](CCC(=O)NCCCC[C@H](NC(=O)[C@H](CC(=O)O)NC(=O)[C@H](CO)NC(=O)[C@@H](NC(=O)[C@H](Cc1ccccc1)NC(=O)[C@@H](NC(=O)CNC(=O)[C@H](CC(C)C)NC(=O)[C@H](C)NC(=O)[C@@H](Cc1ccc(O)cc1)NC(C)=O)[C@@H](C)O)[C@@H](C)O)C(=O)N[C@@H](CO)C(=O)N[C@@H](CCCCN)C(=O)N[C@@H](Cc1ccc(O)cc1)C(=O)N[C@@H](CC(C)C)C(=O)N[C@@H](CC(=O)O)C(=O)N[C@@H](CCC(=O)O)C(=O)N[C@@H](CCCNC(=N)N)C(=O)N[C@@H](C)C(=O)N[C@@H](C)C(=O)N[C@@H](CCC(N)=O)C(=O)N[C@@H](CC(=O)O)C(=O)N[C@@H](Cc1ccccc1)C(=O)N[C@H](C(=O)N[C@@H](CCC(N)=O)C(=O)N[C@@H](Cc1c[nH]c2ccccc12)C(=O)N[C@@H](CC(C)C)C(=O)N[C@@H](CC(C)C)C(=O)N[C@@H](CCC(=O)O)C(=O)NCC(=O)NCC(=O)N1CCC[C@H]1C(=O)N[C@@H](CO)C(=O)N[C@@H](CO)C(=O)NCC(=O)N[C@@H](C)C(=O)N1CCC[C@H]1C(=O)N1CCC[C@H]1C(=O)N1CCC[C@H]1C(=O)N[C@@H](CO)C(N)=O)C(C)C)C(=O)O` [compound 142] (Ac-[dY]ALGTFTSDK([γGlu-Palmitoyl])SKYLDERAAQDFVQWLLEGGPSSGAPPPS-NH2), the EC50 on GIP receptor (setting [1]) came out at 2 pM; on glucagon receptor (setting [1]) it was 0.103 nM; on GLP-1 receptor (setting [1]), 5 pM.

Regarding `CCCCCCCCCCCCCCCC(=O)N[C@@H](CCC(=O)NCCCC[C@H](NC(=O)[C@H](CC(=O)O)NC(=O)[C@H](CO)NC(=O)[C@@H](NC(=O)[C@H](Cc1ccccc1)NC(=O)[C@@H](NC(=O)CNC(=O)[C@H](CCC(N)=O)NC(=O)[C@H](C)NC(=O)[C@@H](Cc1ccc(O)cc1)NC(C)=O)[C@@H](C)O)[C@@H](C)O)C(=O)N[C@@H](CO)C(=O)N[C@@H](CCCCN)C(=O)N[C@@H](Cc1ccc(O)cc1)C(=O)N[C@@H](CC(C)C)C(=O)N[C@@H](CC(=O)O)C(=O)N[C@@H](CCC(=O)O)C(=O)N[C@@H](CCCNC(=N)N)C(=O)N[C@@H](C)C(=O)N[C@@H](C)C(=O)N[C@@H](CCC(N)=O)C(=O)N[C@@H](CC(=O)O)C(=O)N[C@@H](Cc1ccccc1)C(=O)N[C@H](C(=O)N[C@@H](CCC(N)=O)C(=O)N[C@@H](Cc1c[nH]c2ccccc12)C(=O)N[C@@H](CC(C)C)C(=O)N[C@@H](CC(C)C)C(=O)N[C@@H](CC(=O)O)C(=O)N[C@@H](C)C(=O)NCC(=O)N1CCC[C@H]1C(=O)N[C@@H](CO)C(=O)N[C@@H](CO)C(=O)NCC(=O)N[C@@H](C)C(=O)N1CCC[C@H]1C(=O)N1CCC[C@H]1C(=O)N1CCC[C@H]1C(=O)N[C@@H](CO)C(N)=O)C(C)C)C(=O)O` [compound 143] (Ac-[dY]AQGTFTSDK([γGlu-Palmitoyl])SKYLDERAAQDFVQWLLDAGPSSGAPPPS-NH2), the results for the EC50 on GIP receptor (setting [2]), on glucagon receptor (setting [2]) and on GLP-1 receptor (setting [2]) were 3 pM, 0.004 nM and 3 pM, respectively.

`CCCCCCCCCCCCCCCC(=O)N[C@@H](CCC(=O)NCCCC[C@H](NC(=O)[C@H](CC(=O)O)NC(=O)[C@H](CO)NC(=O)[C@@H](NC(=O)[C@H](Cc1ccccc1)NC(=O)[C@@H](NC(=O)CNC(=O)[C@H](CCC(=O)O)NC(=O)[C@H](C)NC(=O)[C@@H](Cc1ccc(O)cc1)NC(C)=O)[C@@H](C)O)[C@@H](C)O)C(=O)N[C@@H](CO)C(=O)N[C@@H](CCCCN)C(=O)N[C@@H](Cc1ccc(O)cc1)C(=O)N[C@@H](CC(C)C)C(=O)N[C@@H](CC(=O)O)C(=O)N[C@@H](CCC(=O)O)C(=O)N[C@@H](CCCNC(=N)N)C(=O)N[C@@H](C)C(=O)N[C@@H](C)C(=O)N[C@@H](CCC(N)=O)C(=O)N[C@@H](CC(=O)O)C(=O)N[C@@H](Cc1ccccc1)C(=O)N[C@H](C(=O)N[C@@H](CCC(N)=O)C(=O)N[C@@H](Cc1c[nH]c2ccccc12)C(=O)N[C@@H](CC(C)C)C(=O)N[C@@H](CC(C)C)C(=O)N[C@@H](CCC(=O)O)C(=O)N[C@@H](C)C(=O)NCC(=O)N1CCC[C@H]1C(=O)N[C@@H](CO)C(=O)N[C@@H](CO)C(=O)NCC(=O)N[C@@H](C)C(=O)N1CCC[C@H]1C(=O)N1CCC[C@H]1C(=O)N1CCC[C@H]1C(=O)N[C@@H](CO)C(N)=O)C(C)C)C(=O)O` [compound 144] (Ac-[dY]AEGTFTSDK([γGlu-Palmitoyl])SKYLDERAAQDFVQWLLEAGPSSGAPPPS-NH2): the EC50 worked out at 3 pM on GIP receptor (setting [1]), 1.3 nM on glucagon receptor (setting [1]) and 17 pM on GLP-1 receptor (setting [1]).

With `CCCCCCCCCCCCCCCC(=O)N[C@@H](CCC(=O)NCCCC[C@H](NC(=O)[C@H](CC(=O)O)NC(=O)[C@H](CO)NC(=O)[C@@H](NC(=O)[C@H](Cc1ccccc1)NC(=O)[C@@H](NC(=O)CNC(=O)[C@H](CCC(=O)O)NC(=O)[C@H](C)NC(=O)CCc1ccc(O)cc1)[C@@H](C)O)[C@@H](C)O)C(=O)N[C@@H](CO)C(=O)N[C@@H](CCCCN)C(=O)N[C@@H](Cc1ccc(O)cc1)C(=O)N[C@@H](CC(C)C)C(=O)N[C@@H](CC(=O)O)C(=O)N[C@@H](CCC(=O)O)C(=O)N[C@@H](CCCNC(=N)N)C(=O)N[C@@H](C)C(=O)N[C@@H](C)C(=O)N[C@@H](CCC(N)=O)C(=O)N[C@@H](CC(=O)O)C(=O)N[C@@H](Cc1ccccc1)C(=O)N[C@H](C(=O)N[C@@H](CCC(N)=O)C(=O)N[C@@H](Cc1c[nH]c2ccccc12)C(=O)N[C@@H](CC(C)C)C(=O)N[C@@H](CC(C)C)C(=O)N[C@@H](CCC(=O)O)C(=O)NCC(=O)NCC(=O)N1CCC[C@H]1C(=O)N[C@@H](CO)C(=O)N[C@@H](CO)C(=O)NCC(=O)N[C@@H](C)C(=O)N1CCC[C@H]1C(=O)N1CCC[C@H]1C(=O)N1CCC[C@H]1C(=O)N[C@@H](CO)C(N)=O)C(C)C)C(=O)O` [compound 145], the EC50 on GIP receptor (setting [1]) is 3 pM; at glucagon receptor (setting [1]) it was 3.73 nM; on GLP-1 receptor (setting [1]) it was 3 pM.

`CCCCCCCCCCCCCCCC(=O)N[C@@H](CCC(=O)NCCCC[C@H](NC(=O)[C@H](CC(=O)O)NC(=O)[C@H](CO)NC(=O)[C@@H](NC(=O)[C@H](Cc1ccccc1)NC(=O)[C@@H](NC(=O)CNC(=O)[C@H](CCC(N)=O)NC(=O)[C@H](C)NC(=O)[C@@H](Cc1ccc(O)cc1)NC(C)=O)[C@@H](C)O)[C@@H](C)O)C(=O)N[C@@H](CO)C(=O)N[C@@H](CCCCN)C(=O)N[C@@H](Cc1ccc(O)cc1)C(=O)N[C@@H](CC(C)C)C(=O)N[C@@H](CC(=O)O)C(=O)N[C@@H](CCC(=O)O)C(=O)N[C@@H](CCCNC(=N)N)C(=O)N[C@@H](C)C(=O)N[C@@H](C)C(=O)N[C@@H](CCC(N)=O)C(=O)N[C@@H](CC(=O)O)C(=O)N[C@@H](Cc1ccccc1)C(=O)N[C@H](C(=O)N[C@@H](CCC(N)=O)C(=O)N[C@@H](Cc1c[nH]c2ccccc12)C(=O)N[C@@H](CC(C)C)C(=O)N[C@@H](CC(C)C)C(=O)N[C@@H](CCC(=O)O)C(=O)N[C@@H](C)C(=O)NCC(=O)N1CCC[C@H]1C(=O)N[C@@H](CO)C(=O)N[C@@H](CO)C(=O)NCC(=O)N[C@@H](C)C(=O)N1CCC[C@H]1C(=O)N1CCC[C@H]1C(=O)N1CCC[C@H]1C(=O)N[C@@H](CO)C(N)=O)C(C)C)C(=O)O` [compound 146] (Ac-[dY]AQGTFTSDK([γGlu-Palmitoyl])SKYLDERAAQDFVQWLLEAGPSSGAPPPS-NH2): the EC50 on GIP receptor (setting [2]) stood at 6 pM; at glucagon receptor (setting [2]), 0.009 nM; at GLP-1 receptor (setting [2]) it was 7 pM.

The values above are taken from patent US9868772B2 (INDIANA UNIVERSITY RESEARCH AND TECHNOLOGY CORPORATION, priority 2012, dated 2018).
